Molecules are shown by their SMILES.

One experiment relates to CA1 pyramidal neurons. As to the kind of experiment: Electrophysiological test of synaptic transmission in the hippocampus. In kind it is cell-based. To be noted: ATPA 1 μM. The source says:
As mentioned above, ATPA modulates synaptic transmission in the hippocampus. […] It is further believed that such selective modulation of GluR5 is likely to show benefits in the treatment of cognitive function.

Experiment [1] has as its target T1, human GluR1 (Homo sapiens, UniProt P42261).
T1 construct: expressed in transfected cells; host or cells: HEK293
The experiment in a line: ATPA selectivity profile in binding studies, displacement of 3[H] AMPA. As to conditions: HEK293 cells stably transfected with human GluR1. Here is the method:
(§1) Activity of compounds acting at the kainate receptor, GluR5, can be determined by radiolabeled ligand binding studies at the cloned and expressed human GluR5 receptor (Korczak et al., 1994, Recept. Channels 3; 41-49), and by whole cell voltage clamp electrophysiological recordings of currents in acutely isolated rat dorsal root ganglion neurons (Bleakman et al., 1996, Mol. Pharmacol. 49; 581-585). The selectivity of compounds acting at GluR5 receptors is determined by measurement of activity at other AMPA and kainate receptors including receptor-ligand binding studies and whole-cell voltage clamp electrophysiological recordings of functional activity at human GluR1-GluR4 receptors (Fletcher et al., 1995, Recept. Channels 3; 21-31), at human GluR6 receptors (Hoo et al., Recept. Channels 2;327-338), at AMPA receptors in acutely isolated cerebellar Purkinje neurons (Bleakman et al., 1996, Mol. Pharmacol. 49; 581-585), and other tissues expressing AMPA receptors (Fletcher and Lodge, 1996, Pharmacol. Ther. 70; 65-89).
(§2) Cell lines (HEK293 cells) stably transfected with human GluR receptors were employed. Displacement of ^3 [H] AMPA by increasing concentrations of ATPA was used on GluR1-4-expressing cells and ^3 [H] kainate (KA) on GluR5, 6, 7 KA2-expressing cells. Estimated activity (Ki) in nM was as follows.

The next experiment concerns the target T2, human GluR3 (Homo sapiens, UniProt P42263).
T2 construct: expressed in transfected cells; host or cells: HEK293
As to the kind of experiment: Electrophysiological (patch-clamp) functional studies on transfected HEK293 cells. It is filed as cell-based. As to conditions: vs 100 mμ AMPA. Here is the method:
as §1
(§3) Functional studies were carried out on HEK293 cells stably transfected with human GluR receptors and on acutely isolated dorsal root ganglion neurons (DRG) using patch-clamp technology (Bleakman et al., 1996, Mol. Pharmacol., 49, 581-585). EC50 values (mμ) for ATPA were estimated for GluR1-4 vs 100 mμAMPA, GluR5 vs 100 mμ KA, GluR6 vs 1 mμ KA, and DRG vs 30 mμ KA, with the following results: […]
(Patch clamp records ionic current or voltage across a cell membrane.)

Experiment [2] addresses T3, human GluR6 (Homo sapiens, UniProt Q13002).
T3 construct: expressed in transfected cells; host or cells: HEK293
The experiment is described as above. In kind it is cell-based. To be noted: vs 1 mμ KA. Here is the method:
as §1, §3

For experiment [3], the target named is T1, human GluR1. The experiment is described as above. In kind it is cell-based. To be noted: vs 100 mμ AMPA. How it is done: as §1, §3
Experiment [4] addresses T4, human GluR5 (Homo sapiens, UniProt P39086).
T4 construct: expressed in transfected cells; host or cells: HEK293
As to the kind of experiment: ATPA selectivity profile in binding studies, displacement of 3[H] kainate. Here is the method:
as §1
(§4) Cell lines (HEK293 cells) stably transfected with human GluR receptors were employed. Displacement of ^3 [H] AMPA by increasing concentrations of ATPA was used on GluR1-4-expressing cells and ^3 [H] kainate (KA) on GluR5, 6, 7 KA2-expressing cells.

Experiment [5] relates to dorsal root ganglion neurons (DRG). As to the kind of experiment: Patch-clamp functional studies on acutely isolated dorsal root ganglion neurons. It is filed as cell-based. To be noted: Rattus norvegicus, Neuron, vs 30 mμ KA. Here is the method:
as §1
Functional studies were carried out on HEK293 cells stably transfected with human GluR receptors and on acutely isolated dorsal root ganglion neurons (DRG) using patch-clamp technology (Bleakman et al., 1996, Mol. Pharmacol., 49, 581-585). […]

Experiment [6] concerns the target T4, human GluR5. As to the kind of experiment: Electrophysiological (patch-clamp) functional studies on transfected HEK293 cells. It is filed as cell-based. How it is done: as §1
(§5) Functional studies were carried out on HEK293 cells stably transfected with human GluR receptors and on acutely isolated dorsal root ganglion neurons (DRG) using patch-clamp technology (Bleakman et al., 1996, Mol. Pharmacol., 49, 581-585).

Experiment [7] addresses T5, human GluR2 (Homo sapiens, UniProt P42262).
T5 construct: expressed in transfected cells; host or cells: HEK293
Described as above. In kind it is cell-based. As to conditions: vs 100 mμ AMPA. How it is done: as §1, §5

Experiment [8] concerns the target T6, human GluR4 (Homo sapiens, UniProt P48058).
T6 construct: expressed in transfected cells; host or cells: HEK293
The description is as above. It is filed as cell-based. To be noted: vs 100 mμ AMPA. Here is the method:
as §1, §5

A further experiment has as its target T7, human GluR7 (Homo sapiens, UniProt Q13003).
T7 construct: expressed in transfected cells; host or cells: HEK293
As to the kind of experiment: ATPA selectivity profile in binding studies, displacement of 3[H] kainate. To be noted: HEK293 cells stably transfected with human GluR7. How it is done:
as §1, §2

The target of experiment [9] is T3, human GluR6. The experiment is described as above. To be noted: HEK293 cells stably transfected with human GluR6. How it is done:
as §1, §2

Another experiment deals with T8, human KA2 (Homo sapiens, UniProt Q16478).
T8 construct: expressed in transfected cells; host or cells: HEK293
T8 sequence (Q16478 15-980): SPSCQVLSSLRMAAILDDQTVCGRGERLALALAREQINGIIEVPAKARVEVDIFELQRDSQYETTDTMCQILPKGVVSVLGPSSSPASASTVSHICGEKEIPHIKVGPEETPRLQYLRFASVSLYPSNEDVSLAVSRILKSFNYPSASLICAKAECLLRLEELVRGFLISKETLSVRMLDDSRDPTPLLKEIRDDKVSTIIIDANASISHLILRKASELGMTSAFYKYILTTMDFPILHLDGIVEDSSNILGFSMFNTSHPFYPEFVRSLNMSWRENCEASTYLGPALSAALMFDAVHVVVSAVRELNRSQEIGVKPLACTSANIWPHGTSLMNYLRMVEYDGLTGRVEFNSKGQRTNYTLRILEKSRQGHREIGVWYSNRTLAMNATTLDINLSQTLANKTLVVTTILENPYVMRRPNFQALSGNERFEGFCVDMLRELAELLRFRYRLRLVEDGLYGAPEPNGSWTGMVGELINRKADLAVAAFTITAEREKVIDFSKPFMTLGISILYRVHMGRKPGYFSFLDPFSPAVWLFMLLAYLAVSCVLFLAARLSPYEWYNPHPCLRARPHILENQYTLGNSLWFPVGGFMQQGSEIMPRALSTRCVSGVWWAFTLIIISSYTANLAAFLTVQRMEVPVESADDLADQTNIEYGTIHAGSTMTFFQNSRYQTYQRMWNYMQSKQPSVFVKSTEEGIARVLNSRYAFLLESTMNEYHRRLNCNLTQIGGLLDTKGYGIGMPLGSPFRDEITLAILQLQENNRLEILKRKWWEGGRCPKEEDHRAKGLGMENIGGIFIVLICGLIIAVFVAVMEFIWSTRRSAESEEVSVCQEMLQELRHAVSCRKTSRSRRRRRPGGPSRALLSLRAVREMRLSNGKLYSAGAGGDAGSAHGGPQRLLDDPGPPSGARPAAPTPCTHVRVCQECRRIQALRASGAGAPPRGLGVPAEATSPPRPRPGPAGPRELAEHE
Described as above. As to conditions: HEK293 cells stably transfected with human KA2. How it is done: as §1, §2

In experiment [10] the target is T5, human GluR2. The experiment in a line: ATPA selectivity profile in binding studies, displacement of 3[H] AMPA. To be noted: HEK293 cells stably transfected with human GluR2. Here is the method: as §1, §4
The target of experiment [11] is T6, human GluR4. Described as above. To be noted: HEK293 cells stably transfected with human GluR4. Here is the method: as §1, §4

T4 sequence (P39086 31-905 isoform P39086-2 limits assumed): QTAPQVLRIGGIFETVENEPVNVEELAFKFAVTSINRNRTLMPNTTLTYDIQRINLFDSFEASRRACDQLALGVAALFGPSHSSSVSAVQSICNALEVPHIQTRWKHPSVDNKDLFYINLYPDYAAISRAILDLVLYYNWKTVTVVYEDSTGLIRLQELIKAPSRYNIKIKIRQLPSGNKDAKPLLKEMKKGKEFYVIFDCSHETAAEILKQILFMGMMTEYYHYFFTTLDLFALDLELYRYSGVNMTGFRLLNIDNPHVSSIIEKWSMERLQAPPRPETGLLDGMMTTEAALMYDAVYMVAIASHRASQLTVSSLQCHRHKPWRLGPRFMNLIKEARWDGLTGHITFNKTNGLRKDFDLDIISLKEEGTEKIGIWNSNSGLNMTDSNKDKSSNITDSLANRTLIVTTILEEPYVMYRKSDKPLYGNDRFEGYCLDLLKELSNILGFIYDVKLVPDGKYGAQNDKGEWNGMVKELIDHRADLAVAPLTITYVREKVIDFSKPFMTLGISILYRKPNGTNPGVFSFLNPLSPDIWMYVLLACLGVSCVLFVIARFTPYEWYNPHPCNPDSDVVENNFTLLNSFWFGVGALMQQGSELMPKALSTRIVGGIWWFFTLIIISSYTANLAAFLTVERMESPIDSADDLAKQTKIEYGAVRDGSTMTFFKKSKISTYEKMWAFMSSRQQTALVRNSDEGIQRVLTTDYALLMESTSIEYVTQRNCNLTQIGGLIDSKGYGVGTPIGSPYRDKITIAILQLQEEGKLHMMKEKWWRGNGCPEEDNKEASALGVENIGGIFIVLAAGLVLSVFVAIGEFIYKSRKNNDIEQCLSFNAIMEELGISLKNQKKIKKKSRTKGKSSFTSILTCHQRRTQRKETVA
T5 sequence (P42262 25-883): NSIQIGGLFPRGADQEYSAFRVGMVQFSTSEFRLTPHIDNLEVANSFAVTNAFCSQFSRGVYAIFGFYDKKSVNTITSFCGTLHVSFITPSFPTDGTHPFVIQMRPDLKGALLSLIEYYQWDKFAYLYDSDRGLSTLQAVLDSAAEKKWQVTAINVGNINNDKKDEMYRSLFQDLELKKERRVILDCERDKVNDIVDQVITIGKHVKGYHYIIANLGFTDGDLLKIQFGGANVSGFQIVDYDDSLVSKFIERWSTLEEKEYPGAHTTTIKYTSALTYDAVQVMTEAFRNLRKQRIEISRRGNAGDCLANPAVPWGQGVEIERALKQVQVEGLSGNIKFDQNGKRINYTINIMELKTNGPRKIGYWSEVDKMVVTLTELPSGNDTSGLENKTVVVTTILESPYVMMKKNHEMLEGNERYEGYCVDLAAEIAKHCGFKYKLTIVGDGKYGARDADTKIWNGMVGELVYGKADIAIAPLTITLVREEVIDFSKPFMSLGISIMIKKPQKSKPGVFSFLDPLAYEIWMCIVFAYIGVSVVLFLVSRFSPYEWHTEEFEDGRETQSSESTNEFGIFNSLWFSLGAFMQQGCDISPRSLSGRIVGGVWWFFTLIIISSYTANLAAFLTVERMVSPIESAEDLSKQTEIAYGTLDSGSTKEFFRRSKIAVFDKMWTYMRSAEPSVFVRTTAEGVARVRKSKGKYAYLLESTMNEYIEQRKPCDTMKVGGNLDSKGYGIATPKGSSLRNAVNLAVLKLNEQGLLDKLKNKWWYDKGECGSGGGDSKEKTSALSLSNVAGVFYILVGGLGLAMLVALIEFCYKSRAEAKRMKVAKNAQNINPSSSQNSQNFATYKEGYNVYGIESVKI
T3 sequence (Q13002 32-908): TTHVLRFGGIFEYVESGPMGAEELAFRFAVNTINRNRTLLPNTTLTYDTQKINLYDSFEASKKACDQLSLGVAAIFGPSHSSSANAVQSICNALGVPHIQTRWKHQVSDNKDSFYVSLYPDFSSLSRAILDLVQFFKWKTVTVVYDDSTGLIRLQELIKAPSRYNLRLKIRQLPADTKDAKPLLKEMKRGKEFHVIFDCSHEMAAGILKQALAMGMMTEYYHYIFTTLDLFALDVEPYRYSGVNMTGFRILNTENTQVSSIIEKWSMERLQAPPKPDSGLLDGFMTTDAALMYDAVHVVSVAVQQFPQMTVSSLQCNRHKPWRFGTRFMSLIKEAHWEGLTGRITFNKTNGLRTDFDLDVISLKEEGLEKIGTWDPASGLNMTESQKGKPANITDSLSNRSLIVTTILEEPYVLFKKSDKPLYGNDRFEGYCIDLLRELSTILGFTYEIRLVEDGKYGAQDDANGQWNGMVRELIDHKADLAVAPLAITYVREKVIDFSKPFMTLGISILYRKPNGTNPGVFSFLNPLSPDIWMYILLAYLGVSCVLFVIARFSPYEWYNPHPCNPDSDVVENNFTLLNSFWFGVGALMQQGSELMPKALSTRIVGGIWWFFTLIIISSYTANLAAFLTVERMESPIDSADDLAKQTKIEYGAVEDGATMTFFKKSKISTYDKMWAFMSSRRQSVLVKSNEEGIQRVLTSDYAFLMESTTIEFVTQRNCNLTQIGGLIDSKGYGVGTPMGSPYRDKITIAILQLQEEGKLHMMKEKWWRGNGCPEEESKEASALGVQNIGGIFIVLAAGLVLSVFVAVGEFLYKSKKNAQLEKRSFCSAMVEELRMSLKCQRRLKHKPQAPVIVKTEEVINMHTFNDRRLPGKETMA
T6 sequence (P48058 21-902): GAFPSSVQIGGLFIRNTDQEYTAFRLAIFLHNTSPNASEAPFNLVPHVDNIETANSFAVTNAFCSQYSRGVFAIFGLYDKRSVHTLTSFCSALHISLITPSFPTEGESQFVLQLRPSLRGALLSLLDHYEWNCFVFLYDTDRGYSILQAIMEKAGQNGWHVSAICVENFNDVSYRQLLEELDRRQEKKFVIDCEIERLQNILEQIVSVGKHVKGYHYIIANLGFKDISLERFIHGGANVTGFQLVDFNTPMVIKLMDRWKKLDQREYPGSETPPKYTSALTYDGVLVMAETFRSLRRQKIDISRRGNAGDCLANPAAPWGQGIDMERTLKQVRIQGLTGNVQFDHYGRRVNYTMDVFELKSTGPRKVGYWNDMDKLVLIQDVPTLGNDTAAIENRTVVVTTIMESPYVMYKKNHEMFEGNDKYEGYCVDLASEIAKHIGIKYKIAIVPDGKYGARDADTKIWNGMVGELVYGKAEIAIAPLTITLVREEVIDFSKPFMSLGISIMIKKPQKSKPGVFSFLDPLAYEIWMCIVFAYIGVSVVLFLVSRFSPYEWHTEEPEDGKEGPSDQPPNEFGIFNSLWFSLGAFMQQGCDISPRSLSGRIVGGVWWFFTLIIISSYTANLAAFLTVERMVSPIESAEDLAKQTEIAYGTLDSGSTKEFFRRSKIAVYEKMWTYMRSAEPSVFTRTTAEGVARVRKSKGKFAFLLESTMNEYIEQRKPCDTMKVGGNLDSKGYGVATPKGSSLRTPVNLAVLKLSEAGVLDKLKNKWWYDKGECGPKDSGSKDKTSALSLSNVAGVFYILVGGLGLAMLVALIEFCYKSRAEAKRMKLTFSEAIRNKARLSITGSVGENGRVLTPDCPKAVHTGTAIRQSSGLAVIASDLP
T1 sequence (P42261 19-906): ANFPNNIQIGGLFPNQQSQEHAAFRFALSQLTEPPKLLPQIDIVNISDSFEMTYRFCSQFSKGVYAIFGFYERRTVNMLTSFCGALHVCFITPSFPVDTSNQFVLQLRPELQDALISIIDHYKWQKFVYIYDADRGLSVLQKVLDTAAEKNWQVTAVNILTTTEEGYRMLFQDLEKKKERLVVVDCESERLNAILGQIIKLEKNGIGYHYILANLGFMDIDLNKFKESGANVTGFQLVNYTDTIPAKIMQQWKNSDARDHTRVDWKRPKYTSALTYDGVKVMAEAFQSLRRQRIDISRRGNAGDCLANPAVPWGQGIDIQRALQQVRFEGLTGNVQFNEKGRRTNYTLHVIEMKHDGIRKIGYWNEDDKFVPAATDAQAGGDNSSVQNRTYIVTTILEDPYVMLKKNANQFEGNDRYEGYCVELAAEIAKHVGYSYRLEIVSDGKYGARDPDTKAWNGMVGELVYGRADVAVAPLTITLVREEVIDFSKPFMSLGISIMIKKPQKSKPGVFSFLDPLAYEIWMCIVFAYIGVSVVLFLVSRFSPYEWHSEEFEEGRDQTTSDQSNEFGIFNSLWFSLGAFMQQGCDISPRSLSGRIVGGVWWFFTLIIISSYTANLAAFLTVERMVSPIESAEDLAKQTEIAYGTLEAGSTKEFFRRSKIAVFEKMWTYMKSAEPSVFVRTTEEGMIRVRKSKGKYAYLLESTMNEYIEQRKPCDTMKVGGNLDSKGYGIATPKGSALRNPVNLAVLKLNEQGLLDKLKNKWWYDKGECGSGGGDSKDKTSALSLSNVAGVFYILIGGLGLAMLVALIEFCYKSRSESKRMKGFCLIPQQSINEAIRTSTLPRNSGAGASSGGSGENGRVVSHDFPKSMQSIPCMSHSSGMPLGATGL

Consider `CC(C)(C)c1onc(O)c1CC(N)C(=O)O` (centres unmarked) [ATPA, 2-amino-3-(3-hydroxy-5-tert-butylisoxazol-4-yl)propanoic acid], for which, in the experiment with CA1 pyramidal neurons, the “effect on synaptic inhibition onto CA1 pyramidal neurons” value is “reduces synaptic inhibition onto CA1 pyramidal neurons”. For the same compound, on human GluR1 [1], the “Estimated activity (Ki) GluR1” value is 17.59 µM. Moreover, the half-maximal effective concentration (EC50) (commonly the concentration giving half of the maximal effect) at human GluR3 was more than 300 µM; on human GluR6 [2], more than 300 µM; on human GluR1 [3], more than 300 µM; in [5], 0.56 µM; on human GluR5 [6] (HEK293 cells, human GluR5, patch-clamp, vs 100 mμ KA), 4 ± 0.7 µM; at human GluR2 [7] it was more than 300 µM. The EC50 on human GluR4 [8] is more than 300 µM. Besides, at human GluR5 [4] (HEK293 cells stably transfected with human GluR5, displacement of 3[H] kainate), the “Estimated activity (Ki) GluR5” value was 0.0031 µM. Further, the “fold less potent on other human AMPA and kainate receptors than on human GluR5 in binding studies” value on human GluR5 [4] (binding studies, GluR5 vs other human AMPA and kainate receptors) is given as “more than 1000 fold”. Besides, the “fold less potent on other human AMPA and kainate receptors than on human GluR5 and rat DRG neurons in electrophysiological studies” value at human GluR5 [6] (electrophysiological studies, GluR5 and rat DRG neurons vs other human AMPA and kainate receptors) came to 100 fold. The “Estimated activity (Ki) GluR7” value on human GluR7 is 14.319 µM. Besides, the “Estimated activity (Ki) GluR6” value on human GluR6 [9] was more than 1000 µM. The “Estimated activity (Ki) KA2” value on human KA2 was 38.832 µM. In addition, the “Estimated activity (Ki) GluR2” value at human GluR2 [10] was 38.616 µM. The “Estimated activity (Ki) GluR4” value at human GluR4 [11] was 15.747 µM.
